From PubChem BioAssay AID1035470 (Broad Institute, 2014) come the findings set out here.

Inconclusive results are not listed. Active and inactive are the calls of the source.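 The calls were made as follows: active = compound lowering the normal-ribosome reporter at least twice as much as the humanized-ribosome reporter, growth loss under a set limit; inconclusive = no clear call, values can overlap the other calls; inactive = the rest.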

In this assay the test system is E. coli WT-GFP vs G2058-humanized RFP, fluorescence, 24 h. Put plainly: growth inhibition of wild-type GFP E. coli versus G2058-humanized strain, dose response, G2058 mutant RFP vs wild-type GFP, cherry-pick, two tests (AID 1035470).
Setting [1] is: E. coli WT-GFP vs G2058-humanized RFP mixed culture, total growth OD600, 24 h.
The mark [2] stands for this setting: measured here: G2058 humanized mutant RFP growth.

The compound `O=C(c1ccc(N2CCCCC2)c([N+](=O)[O-])c1)N1CCN(c2ccccn2)CC1` returned an AC50 under setting [1] greater than 100 µM.
For `O=C(NCc1ccccc1Cl)c1ccc2c(c1)SC1=NS(=O)(=O)CCN12`, the AC50 was > 100 µM (inactive). Under setting [1], this compound gave an AC50 greater than 100 µM.
Consider `COCC#Cc1ccc2c(c1)O[C@H](CN(C)C(=O)c1ccccc1)[C@@H](C)CN([C@H](C)CO)S2(=O)=O`, for which, under setting [1], the AC50 is greater than 100 µM.
The same measure, in the same setting: under `CCOc1ccc(CN(C)C(=O)c2ccc(NS(=O)(=O)c3ccc4[nH]c(=O)[nH]c4c3)cc2)cc1` stands greater than 100 µM; under `COc1cccc(SCC(=O)N2CCN(c3ccccc3)CC2)c1`, greater than 100 µM.
Under setting [2], `CCn1c(COc2cccc(OC)c2)nnc1SCC(=O)Nc1cc(OC)ccc1OC` yielded an AC50 of 19.4 µM.
On to `CCOC(=O)c1cc(C)nc(N2CCCCC2)c1C#N`, for which the AC50 was > 100 µM (inactive). Besides, under setting [1], the concentration at half-maximal activity (AC50) is greater than 100 µM.
As to `COc1cccc(CNC(=O)CCSCc2ccccc2F)c1`, the AC50 was > 100 µM (inactive). Moreover, the AC50 under setting [2] was greater than 100 µM.
On to `Cn1c(-[n+]2c(-c3ccccc3)cc(-c3ccccc3)cc2-c2ccccc2)nc2c([N+](=O)[O-])cccc21`, for which the AC50 was > 100 µM (inactive).
`CCc1nn2cc(C(=O)c3cc(Cl)ccc3O)cnc2c1-c1ccc(F)cc1`: the AC50 is > 100 µM (inactive).
Still for that read-out and setting: the result for `CCOc1ccc2nc(N(CCN(C)C)C(=O)c3ccc4ccccc4c3)sc2c1` reads > 100 µM (inactive).
Take `O=C(Nc1cccc2ccccc12)c1ccc([N+](=O)[O-])o1`: the AC50 is > 100 µM (inactive). The compound also gave an AC50 under setting [1] greater than 100 µM.
On to `CN(c1ccccc1)S(=O)(=O)c1cccc(NC(=O)CCNC(=O)c2ccc([N+](=O)[O-])cc2)c1`, for which the AC50 is > 100 µM (inactive).
As for `COc1cc(OC)c(NS(=O)(=O)c2cccc(C(=O)OCC(=O)NCC3CCCO3)c2)cc1Cl` (configuration not stated), the AC50 under setting [1] was greater than 100 µM.
Regarding `NS(=O)(=O)c1ccc(Nc2c([N+](=O)[O-])cncc2[N+](=O)[O-])cc1`, the AC50 is > 100 µM (inactive).
Consider `CC(=O)Nc1cccc(OCCCOc2cccc([N+](=O)[O-])c2)c1`, for which the AC50 is > 100 µM (inactive). Moreover, the AC50 under setting [1] was greater than 100 µM.
For `CNC(=O)C[C@H]1CC[C@@H]2[C@@H](COc3ccc(NC(=O)Nc4ccc(F)c(F)c4)cc3C(=O)N2C)O1`, the AC50 was > 100 µM (inactive).
On to `CC1(c2ccc3ccccc3c2)NC(=O)N(CC(=O)N2CCN(c3ccccc3O)CC2)C1=O` (configuration not stated), for which the AC50 is > 100 µM (inactive). For the same compound, under setting [1], the AC50 was greater than 100 µM.
With `COc1ccc(NC(=O)Nc2cccc3c2O[C@H](CN(C)S(=O)(=O)c2ccc(Cl)cc2)[C@@H](C)CN([C@H](C)CO)C3=O)cc1`, the AC50 was > 100 µM (inactive).
Take `CC1CCC2(CC1)SCC(=O)N2c1ccc(F)cc1` (configuration not stated): the AC50 was > 100 µM (inactive). This compound also yielded an AC50 under setting [1] greater than 100 µM. The compound also registered an AC50 under setting [2] of 35.3 µM.
With `CN(CC(=O)Nc1ccc(F)cc1)C(=O)COc1ccc([N+](=O)[O-])cc1Cl`, the AC50 is > 100 µM (inactive). This compound returned an AC50 under setting [1] greater than 100 µM.
The corresponding values for `COc1ccc(OC)c(C(=O)COC(=O)c2ccc([N+](=O)[O-])o2)c1` are > 100 µM (inactive) and greater than 100 µM.
Compound `COC(=O)c1sccc1NC(=O)CNC(=O)c1ccccc1` showed an AC50 under setting [1] greater than 100 µM.
Turning to `CCOc1cccc(-c2cc(-c3n[nH]c(=S)n3CC)c3ccccc3n2)c1`, the AC50 is > 100 µM (inactive).
On the same count and under the same terms, the result for `Cc1ccc(S(=O)(=O)N2CCOCC2)cc1NC(=O)COc1ccc(-c2nnco2)cc1` reads > 100 µM (inactive).
Take `O=C(CCCSc1nc2ccccc2s1)NCc1ccc2c(c1)OCO2`: the AC50 is > 100 µM (inactive).
Consider `CCn1cc(Br)c(C(=O)Nc2ccc(C(=O)OC(C)C)cc2)n1`, for which the AC50 was > 100 µM (inactive).
As to `CC(=O)Oc1ccc(N(C(C)=O)S(=O)(=O)c2ccc(C)cc2)c2ccccc12`, the AC50 was > 100 µM (inactive). For the same compound, under setting [1], the AC50 was greater than 100 µM.
The corresponding values for `COc1cc2c(c(OC)c1OC)C(c1ccc3c(c1)OCO3)CC(=O)O2` (configuration not stated) are > 100 µM (inactive) and greater than 100 µM.
As for `Cc1cc(C)n2nc(C(=O)Nc3cccc(S(=O)(=O)N(C)c4ccccc4)c3)nc2n1`, the AC50 is > 100 µM (inactive).
Consider `O=C(COC(=O)CNC(=O)c1ccc(F)cc1)Nc1cccc(S(=O)(=O)N2CCCC2)c1`, for which the concentration at half-maximal activity (AC50) under setting [1] was greater than 100 µM.
As to `CCOc1ccccc1C(=O)OCC(=O)NCCc1ccc(OC)cc1`, the AC50 is > 100 µM (inactive). The AC50 under setting [1] is 50.9 µM.
For the compound `CCOC(=O)c1c(NC(=O)CN2CCC(C)CC2)sc(C)c1C`, the AC50 is > 100 µM (inactive).
The same measure, in the same setting: the result for `CC(C)CNC(=O)c1cccc(NC(=O)C(C)Oc2ccccc2)c1` (configuration not stated) reads > 100 µM (inactive); that for `Cc1ncoc1C(=O)NCCC(c1ccccc1)c1ccccc1`, > 100 µM (inactive).
Consider `Cc1nn(-c2cccc(Cl)c2)nc1C(=O)O`, for which the AC50 was > 100 µM (inactive). Also, under setting [1], the AC50 was greater than 100 µM.
For `CN(C)S(=O)(=O)c1cccc(C(=O)Nc2ccc(C(=O)Nc3cccc(S(N)(=O)=O)c3)cc2)c1`, the AC50 is > 100 µM (inactive).
As to `COc1ccc(Nc2nc(N)c([N+](=O)[O-])c(N3CCOCC3)n2)cc1`, the AC50 is > 100 µM (inactive). Under setting [1], this compound showed an AC50 greater than 100 µM.
For `O=c1[nH]c2cc([N+](=O)[O-])ccc2c2ccccc12`, the AC50 was > 100 µM (inactive). The compound further returned an AC50 under setting [1] greater than 100 µM. This compound also yielded an AC50 under setting [2] greater than 100 µM.
Consider `COc1ccc(CN2CCC3CC2c2cc(Cl)ccc23)cc1` (configuration not stated), for which the AC50 was > 100 µM (inactive).
With `Cc1ccc(Oc2ccc(S(=O)(=O)N3CCOCC3)cc2C(N)=O)cc1C`, the AC50 was > 100 µM (inactive). Under setting [1], this compound showed an AC50 greater than 100 µM.
Taken in the same sequence, the figures for `Cc1cc(NC(=O)CCCn2cc([N+](=O)[O-])cn2)n(Cc2ccc(F)cc2)n1` were > 100 µM (inactive) and greater than 100 µM.
Consider `O=C(Nc1cccc(O)c1)c1cccc(S(=O)(=O)Nc2cccc(O)c2)c1`, for which the AC50 was > 100 µM (inactive).
In the case of `CC1CCCC(NC(=O)COC(=O)Cc2c[nH]c3ccccc23)C1C` (configuration not stated), the AC50 is > 100 µM (inactive). For the same compound, the half-maximal activity concentration (AC50) under setting [1] is greater than 100 µM.
With `COc1ccc(OC)c(-c2nnc3n2N=C(c2ccc(OC)c(OC4CCOC4)c2)CS3)c1` (configuration not stated), the AC50 was > 100 µM (inactive).
As to `C[C@H](CO)N1C[C@H](C)[C@H](CN(C)C(=O)Nc2ccc3c(c2)OCO3)Oc2c(NC(=O)Nc3ccccc3)cccc2C1=O`, the AC50 is > 100 µM (inactive).
As for `Brc1ccccc1Cn1c(-c2cncs2)nc2ccccc21`, the AC50 is > 100 µM (inactive). Under setting [1], the AC50 was greater than 100 µM. Under setting [2], the AC50 was greater than 100 µM.
For `Brc1cc2c(cc1Br)OCCOCCOCCO2`, the AC50 was > 100 µM (inactive). Further, under setting [1], the AC50 is greater than 100 µM. The same compound displayed an AC50 under setting [2] greater than 100 µM.
`O=C(c1ccc(Cl)cc1)C1CCCN(Cc2cccc3cnccc23)C1` (configuration not stated) displayed an AC50 under setting [2] greater than 100 µM.
Under setting [1], `COc1ccc(-c2noc(=O)n2Cc2ccccc2Cl)cc1` returned an AC50 greater than 100 µM.
On the same count and under the same terms, under `CCn1c(SCC(=O)Nc2ccc(OC)cc2)nc2nc3c(cc2c1=O)CCCC3` stands 47.7 µM.
Consider `COc1cccc(-c2ccc(NC(=O)C3CCCN(Cc4cnn(C(C)C)c4)C3)cc2)c1` (configuration not stated), for which the AC50 was > 100 µM (inactive).
As for `Cc1ccc2nc(-c3ccc(Cl)cc3)c(Cc3ccccc3C(F)(F)F)n2c1`, the AC50 under setting [1] was greater than 100 µM.
On to `Cc1ccc(CC2C(=O)N(c3cc(Cl)ccn3)C(=O)C2C)cc1` (configuration not stated), for which the AC50 was > 100 µM (inactive).
With `COc1cc2c(cc1OC)CN(CC(=O)Nc1ccccc1SC)CC2`, the AC50 was > 100 µM (inactive). The compound further yielded an AC50 under setting [1] greater than 100 µM. The compound further came in with an AC50 under setting [2] of 47.2 µM.
Consider `Cc1onc(-c2ccccc2Cl)c1C(=O)OCC(=O)c1ccccc1`, for which the AC50 is > 100 µM (inactive).
Still for that read-out and setting: under `COc1ccc(-c2nc3c(C)cc(Br)cn3c2Cc2ccc(C)cc2)cc1OC` stands > 100 µM (inactive).
For `CC1CCCCN1CC(O)COCCC12CC3CC(CC(C3)C1)C2` (configuration not stated), the AC50 is > 100 µM (inactive). The compound also yielded an AC50 under setting [1] greater than 100 µM.
For `CC(C)n1nnnc1C1c2ccccc2C(=O)N1CCOc1ccccc1` (configuration not stated), the AC50 was > 100 µM (inactive).
`Cc1ccccc1S(=O)(=O)c1cc2ccccc2nc1N`: the AC50 under setting [1] was greater than 100 µM.
Turning to `Cn1nc(C(=O)Nc2cccc(S(=O)(=O)N3CCCCC3)c2)c2ccccc2c1=O`, the AC50 is > 100 µM (inactive). Also, under setting [1], the AC50 was greater than 100 µM.
Under setting [2], `C(=C/c1nccc2c1[nH]c1ccccc12)/c1ccc2c(c1)OCO2` displayed an AC50 greater than 100 µM.
With `c1ccc(Nc2ccc3ccccc3c2)cc1`, the half-maximal activity concentration (AC50) was greater than 100 µM. The AC50 under setting [2] was greater than 100 µM.
`COC(=O)c1ccc(CSc2nc3ccccc3s2)o1` displayed an AC50 under setting [1] greater than 100 µM.
Take `NC(=O)CSc1nc2cc([N+](=O)[O-])ccc2n1-c1cccc(C(F)(F)F)c1`: the AC50 was > 100 µM (inactive). Besides, the AC50 under setting [1] is greater than 100 µM.
As for `O=C(COC(=O)C1CC2C=CC1C2)Nc1ccc([N+](=O)[O-])cc1` (configuration not stated), the AC50 reads like this: under setting [1], greater than 100 µM; under setting [2], greater than 100 µM.
As to `Cc1cccc(-c2ccc([C@H]3[C@H](CO)N4CCCCN(S(=O)(=O)c5ccccc5C)C[C@@H]34)cc2)c1`, the AC50 is > 100 µM (inactive). Further, the half-maximal activity concentration (AC50) under setting [1] was greater than 100 µM.
Taken in the same sequence, the figures for `Cc1cc(C(=O)NCCC2=CCCCC2)ccc1[N+](=O)[O-]` were > 100 µM (inactive) and greater than 100 µM.
`O=S1(=O)N[C@H](Cc2ccccc2)COc2cc(N3CCSCC3)ccc21` yielded an AC50 under setting [1] greater than 100 µM.

By AC50 is commonly meant the concentration at which the activity in the assay is half-maximal.
